Results as given in US20070249637A1, “Inhibitors Of Hepatitis C Virus Protease, And Compositions And Treatments Using The Same” (priority 2004, published 2007).

Experiments:
[1] = molecular target: T1, full-length NS3-NS4A enzyme (Hepatitis C virus genotype 1a, UniProt P27958); test: HCV protease assay (continuous FRET, full-length enzyme); format: biochemical; details: 3 nM full-length NS3-NS4A, 3 uM depsipeptide FRET substrate S1; competitive inhibition fit
T1 construct: 3 nM full-length NS3-NS4A enzyme
Description: HCV protease activity and compound inhibition was monitored using a continuous, fluorescence resonance energy transfer (FRET) assay. Test compounds at various concentrations were added to assay buffer (50 mM MOPS pH 7.5, 50 mM NaCl, 20% glycerol, 0.025% Triton-X 100, 1 mM tris(2-carboxyethyl)phosphine) containing 3 uM depsipeptide FRET substrate S1 (Anaspec) (see Taliani et al. Analytical Biochemistry, 240, 60-67 (1996)) in a white, non-binding 96-well plate (Corning). The reaction was started by the addition of 3 nM full-length NS3-NS4A enzyme. The increase in fluorescence intensity following peptide cleavage was monitored using a Safire fluorescence plate reader (Tecan). The excitation and emission wavelengths were 340 nm and 500 nm, respectively. Inhibition constants (KI) were calculated by non-linear regression analysis using an equation derived for competitive inhibition.

[2] = tested on: HCV dual reporter subgenomic replicon (B6b cell line); test: HCV dual reporter subgenomic replicon assay, Renilla luciferase (antiviral activity); format: cell-based; details: Hepatitis C virus, 72 h; 50% reduction of Renilla luciferase expression, 3 days incubation
Description: The compounds described herein were tested for antiviral activity utilizing a dual-reporter replicon assay as described in U.S. patent application Ser. No. 10/818,075 (the '075 application), filed Apr. 5, 2004. The disclosure of the '075 application is incorporated herein.
(§1) Cell-based antiviral activity was evaluated in the previously described HCV dual reporter subgenomic replicon system (the '075 application). With this system, the effects of a compound on both HCV replication and cell viability can be simultaneously determined by measuring the intracellular levels of two separate reporter proteins. The dicistronic selectable replicon contains the Renilla luciferase gene such that Renilla luciferase activity within stably-transfected cells serves as a marker of HCV replication. The firefly luciferase gene is stably integrated into and expressed by the Huh-7 host cells. Since firefly luciferase activity is dependent upon cellular transcription and translation, firefly luciferase activity serves as an indicator of cell viability.
(§2) The dual reporter selectable replicon cell line (B6b) was maintained in DMEM supplemented with 10% FBS, L-glutamine, non-essential amino acids, penicillin, streptomycin, and selection agents (200 ug/ml G418 and 6 ug/ml blastocidin). On the first day of the experiment, cells were trypsinized, washed, and diluted in medium lacking the selection agents. Cells were transferred to 96-well, black-walled, clear bottom plates at a density of 2×10^4 cells in 150 ul of medium per well. Cells were allowed to settle for 60 to 90 minutes while compounds were being prepared. Each compound was initially diluted to a 4× working stock (2.56% DMSO in tissue culture medium) that was then serially diluted nine times in half log increments in medium with 2.56% DMSO. Fifty microliters of each dilution were then added in triplicate to the plated cells in order to obtain final IX compound concentrations with 0.64% DMSO. Typical testing concentrations ranged from 320 uM to 10 nM. Control wells containing 0.64% DMSO without compound were also included on each plate.
(§3) After 3 days of incubation under humidity at 37° C. with 5% CO2, plates were microscopically examined for compound precipitation and cell death. Tissue culture medium was then aspirated and cells were lysed with 20 ul of 1× Passive Lysis Buffer (Promega, Madison, Wis.). Reporter activity was measured using a MicroBeta Jet 1450 (Perkin Elmer, Boston, Mass.) following sequential 50 ul additions of firefly and Renilla luciferase substrates as described in the manufacturers protocol (Promega). Luciferase activities were expressed as a percentage of the signals observed in the compound-free control wells. The amount of compound required to reduce Renilla luciferase expression by 50% is defined as the 50% effective concentration, or EC50. The amount of compound that reduces firefly luciferase expression by 50% is defined as the 50% cytotoxic concentration, or CC50. A therapeutic index (TI) is calculated by dividing the CC50 by the EC50.

in vitro = format: cell-based; details: human; 50% reduction of firefly luciferase expression, 3 days incubation; read-out: Replicon CC50
Description: as §1, §2, §3

T1 sequence (P27958 1027-1657): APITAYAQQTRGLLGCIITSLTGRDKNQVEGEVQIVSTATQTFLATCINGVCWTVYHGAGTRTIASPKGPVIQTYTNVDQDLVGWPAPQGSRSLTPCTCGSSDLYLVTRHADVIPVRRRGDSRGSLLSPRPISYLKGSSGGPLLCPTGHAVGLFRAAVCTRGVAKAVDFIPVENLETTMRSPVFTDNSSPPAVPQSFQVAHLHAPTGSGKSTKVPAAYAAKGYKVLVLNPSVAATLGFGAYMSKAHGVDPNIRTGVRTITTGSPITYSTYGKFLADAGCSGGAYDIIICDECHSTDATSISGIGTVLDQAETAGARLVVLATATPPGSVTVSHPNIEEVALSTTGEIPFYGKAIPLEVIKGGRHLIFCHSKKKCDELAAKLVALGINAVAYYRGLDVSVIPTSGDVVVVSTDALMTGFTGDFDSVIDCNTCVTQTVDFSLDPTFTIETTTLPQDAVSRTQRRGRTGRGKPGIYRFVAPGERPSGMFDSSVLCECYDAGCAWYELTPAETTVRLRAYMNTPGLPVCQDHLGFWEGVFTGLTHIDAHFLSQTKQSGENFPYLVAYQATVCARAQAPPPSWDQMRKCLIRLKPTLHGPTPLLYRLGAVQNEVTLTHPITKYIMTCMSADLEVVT
T1 sequence (P27958 1658-1711): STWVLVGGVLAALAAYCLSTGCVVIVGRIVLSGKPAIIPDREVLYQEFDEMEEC

## O=C(N[C@H]1CCCCC/C=C\[C@@H]2C[C@@]2(C(=O)O)NC(=O)[C@@H]2C[C@@H](Oc3cc(-c4ccccn4)nc4ccsc34)CN2C1=O)OC1CCCC1 [Example 11, (2R,12Z,13aS,14aR,16aS)-6-{[(cyclopentyloxy)carbonyl]amino}-5,16-dioxo-2-[(5-pyridin-2-ylthieno[3,2-b]pyridin-7-yl)oxy]-1,2,3,6,7,8,9,10,11,13a,14,15,16,16a-tetradecahydrocyclopropa[e]pyrrolo[1,2-a][1,4]diazacyclopentadecine-14a(5H)-carboxylic acid]
[1]
  Ki: 6.6 nM
[2]
  EC50: 110 nM
In vitro
  CC50 at 3 days: 86000 nM

## O=C(N[C@H]1CCCCC/C=C\[C@@H]2C[C@@]2(C(=O)O)NC(=O)[C@@H]2C[C@@H](Oc3cc(-c4ccccn4)nc4ccsc34)CN2C1=O)OC1CCC1 [Example 13, (2R,6S,12Z,13aS,14aR,16aS)-6-{[(Cyclobutyloxy)carbonyl]amino}-5,16-dioxo-2-[(5-pyridin-2-ylthieno[3,2-b]pyridin-7-yl)oxy]-1,2,3,6,7,8,9,10,11,13a,14,15,16,16a-tetradecahydrocyclopropa[e]pyrrolo[1,2-a][1,4]diazacyclopentadecine-14a(5H)-carboxylic acid]
[1]
  Ki: 9 nM
[2]
  EC50: 310 nM
In vitro
  CC50 at 3 days: 161000 nM

## CC(C)(C)OC(=O)N[C@H]1CCCCC/C=C\[C@@H]2C[C@@]2(C(=O)O)NC(=O)[C@@H]2C[C@@H](Oc3cc(-c4ccccn4)nc4ccsc34)CN2C1=O [Example 14, (2R,6S,12Z,13aS,14aR,16aS)-6-[(Tert-butoxycarbonyl)amino]-5,16-dioxo-2-[(5-pyridin-2-ylthieno[3,2-b]pyridin-7-yl)oxy]-1,2,3,6,7,8,9,10,11,13a,14,15,16,16a-tetradecahydrocyclopropa[e]pyrrolo[1,2-a][1,4]diazacyclopentadecine-14a(5H)-carboxylic acid]
[1]
  Ki: 8.9 nM
[2]
  EC50: 610 nM
In vitro
  CC50 at 3 days: 92000 nM

## O=C(CC1CC1)N[C@H]1CCCCC/C=C\[C@@H]2C[C@@]2(C(=O)O)NC(=O)[C@@H]2C[C@@H](Oc3cc(-c4ccccn4)nc4ccsc34)CN2C1=O [Example 16, (2R,6S,12Z,13aS,14aR,16aS)-6-[(Cyclopropylacetyl)amino]-5,16-dioxo-2-[(5-pyridin-2-ylthieno[3,2-b]pyridin-7-yl)oxy]-1,2,3,6,7,8,9,10,11,13a,14,15,16,16a-tetradecahydrocyclopropa[e]pyrrolo[1,2-a][1,4]diazacyclopentadecine-14a(5H)-carboxylic acid]
[1]
  Ki: 11 nM
[2]
  EC50: 140 nM
In vitro
  CC50 at 3 days: 251000 nM

## O=C(N[C@H]1CCCCC/C=C\[C@@H]2C[C@@]2(C(=O)O)NC(=O)[C@@H]2C[C@@H](Oc3nc(-c4ccccn4)nc4sccc34)CN2C1=O)OC1CCCC1 [Example 26, (2R,6S,12Z,13aS,14aR,16aS)-6-{[(Cyclopentyloxy)carbonyl]amino}-5,16-dioxo-2-[(2-pyridin-2-ylthieno[2,3-d]pyrimidin-4-yl)oxy]-1,2,3,6,7,8,9,10,11,13a,14,15,16,16a-tetradecahydrocyclopropa[e]pyrrolo[1,2-a][1,4]diazacyclopentadecine-14a(5H)-carboxylic acid]
[1]
  Ki: 8.5 nM
[2]
  EC50: 100 nM
In vitro
  CC50 at 3 days: 117000 nM

## O=C(N[C@H]1CCCCC/C=C\[C@@H]2C[C@@]2(C(=O)O)NC(=O)[C@@H]2C[C@@H](Oc3nc(-c4ccccn4)nc4sccc34)CN2C1=O)OC1CCC1 [Example 28, (2R,6S,12Z,13aS,14aR,16aS)-6-{[(cyclobutyloxy)carbonyl]amino}-5,16-dioxo-2-[(2-pyridin-2-ylthieno[2,3-d]pyrimidin-4-yl)oxy]-1,2,3,6,7,8,9,10,11,13a,14,15,16,16a-tetradecahydrocyclopropa[e]pyrrolo[1,2-a][1,4]diazacyclopentadecine-14a(5H)-carboxylic acid]
[1]
  Ki: 21 nM
[2]
  EC50: 420 nM
In vitro
  CC50 at 3 days: 59000 nM

## CC(C)(C)OC(=O)N[C@H]1CCCCC/C=C\[C@@H]2C[C@@]2(C(=O)O)NC(=O)[C@@H]2C[C@@H](Oc3nc(-c4ccccn4)nc4sccc34)CN2C1=O [Example 29, (2R,6S,12Z,13aS,14aR,16aS)-6-[(tert-butoxycarbonyl)amino]-5,16-dioxo-2-[(2-pyridin-2-ylthieno[2,3-d]pyrimidin-4-yl)oxy]-1,2,3,6,7,8,9,10,11,13a,14,15,16,16a-tetradecahydrocyclopropa[e]pyrrolo[1,2-a][1,4]diazacyclopentadecine-14a(5H)-carboxylic acid]
[1]
  Ki: 42 nM
[2]
  EC50: 420 nM
In vitro
  CC50 at 3 days: 13000 nM

## O=C(CC1CC1)N[C@H]1CCCCC/C=C\[C@@H]2C[C@@]2(C(=O)O)NC(=O)[C@@H]2C[C@@H](Oc3nc(-c4ccccn4)nc4sccc34)CN2C1=O [Example 31, (2R,6S,12Z,13aS,14aR,16aS)-6-[(Cyclopropylacetyl)amino]-5,16-dioxo-2-[(2-pyridin-2-ylthieno[2,3-d]pyrimidin-4-yl)oxy]-1,2,3,6,7,8,9,10,11,13a,14,15,16,16a-tetradecahydrocyclopropa[e]pyrrolo[1,2-a][1,4]diazacyclopentadecine-14a(5H)-carboxylic acid]
[1]
  Ki: 39 nM
[2]
  EC50: 250 nM
In vitro
  CC50 at 3 days: 168000 nM

## O=C(N[C@H]1CCCCC/C=C\[C@@H]2C[C@@]2(C(=O)O)NC(=O)[C@@H]2C[C@@H](Oc3nc(-c4ccccn4)nc4ccsc34)CN2C1=O)OC1CCCC1 [Example 41, (2R,6S,12Z,13aS,14aR,16aS)-6-{[(cyclopentyloxy)carbonyl]amino}-5,16-dioxo-2-[(2-pyridin-2-ylthieno[3,2-d]pyrimidin-4-yl)oxy]-1,2,3,6,7,8,9,10,11,13a,14,15,16,16a-tetradecahydrocyclopropa[e]pyrrolo[1,2-a][1,4]diazacyclopentadecine-14a(5H)-carboxylic acid]
[1]
  Ki: 5.2 nM
[2]
  EC50: 34 nM
In vitro
  CC50 at 3 days: 87000 nM

## O=C(N[C@H]1CCCCC/C=C\[C@@H]2C[C@@]2(C(=O)O)NC(=O)[C@@H]2C[C@@H](Oc3nc(-c4ccccn4)nc4ccsc34)CN2C1=O)OC1CCC1 [Example 43, (2R,6S,12Z,13aS,14aR,16aS)-6-{[(cyclobutyloxy)carbonyl]amino}-5,16-dioxo-2-[(2-pyridin-2-ylthieno[3,2-d]pyrimidin-4-yl)oxy]-1,2,3,6,7,8,9,10,11,13a,14,15,16,16a-tetradecahydrocyclopropa[e]pyrrolo[1,2-a][1,4]diazacyclopentadecine-14a(5H)-carboxylic acid]
[1]
  Ki: 20 nM
[2]
  EC50: 190 nM
In vitro
  CC50 at 3 days: > 320000 nM

## CC(C)(C)OC(=O)N[C@H]1CCCCC/C=C\[C@@H]2C[C@@]2(C(=O)O)NC(=O)[C@@H]2C[C@@H](Oc3nc(-c4ccccn4)nc4ccsc34)CN2C1=O [Example 44, (2R,6S,12Z,13aS,14aR,16aS)-6-[(Tert-butoxycarbonyl)amino]-5,16-dioxo-2-[(2-pyridin-2-ylthieno[3,2-d]pyrimidin-4-yl)oxy]-1,2,3,6,7,8,9,10,11,13a,14,15,16,16a-tetradecahydrocyclopropa[e]pyrrolo[1,2-a][1,4]diazacyclopentadecine-14a(5H)-carboxylic acid]
[1]
  Ki: 20 nM
[2]
  EC50: 150 nM
In vitro
  CC50 at 3 days: 159000 nM
